In US9765074B2, “Inhibitors of the renal outer medullary potassium channel” (Merck Sharp & Dohme Corp., priority 2013, dated 2017) one finds IC50 data, which are given here for 32 molecules.

This test concerns the target T1, hROMK (hKir1.1) (Homo sapiens, UniProt P48048).
T1 construct: expressed in transfected cells
T1 sequence (P48048 1-391): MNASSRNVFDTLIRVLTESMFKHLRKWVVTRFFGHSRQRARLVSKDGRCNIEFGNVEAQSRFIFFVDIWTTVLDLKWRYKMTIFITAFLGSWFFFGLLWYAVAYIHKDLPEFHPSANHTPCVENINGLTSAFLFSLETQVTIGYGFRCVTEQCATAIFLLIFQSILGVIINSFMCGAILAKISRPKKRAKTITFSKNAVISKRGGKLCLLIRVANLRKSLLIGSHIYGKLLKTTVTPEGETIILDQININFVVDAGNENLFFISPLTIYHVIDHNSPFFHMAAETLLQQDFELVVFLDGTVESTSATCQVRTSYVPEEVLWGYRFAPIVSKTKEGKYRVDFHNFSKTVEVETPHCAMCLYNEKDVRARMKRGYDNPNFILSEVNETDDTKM
Nature of the test: Thallium Flux Assay (ROMK channel functional thallium flux, FLIPR-Tetra). It is filed as cell-based. To be noted: HEK293 cells stably expressing hROMK (hKir1.1); 30 min compound incubation. The method, boiled down:
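HEK293 cells stably expressing hKir1.1, loaded with FluxOR dye for 90 min, then preincubated with compound for 30 min at ambient temperature with 0.3 mM ouabain and probenecid. Stimulated with 3 mM thallium/0.3 mM potassium (final); fluorescence read ~10 min. Normalized to 3 μM reference ROMK inhibitor; IC50 from inhibition of flux.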

Take `CC1=C(N2CCC3(CCN(CCc4nnc(-n5cnnn5)cc4C)CC3F)C2=O)COC1=O` (single isomer, unassigned) [Example 268, 6-fluoro-2-(4-methyl-5-oxo-2,5-dihydrofuran-3-yl)-8-{2-[4-methyl-6-(1H-tetrazol-1-yl)pyridazin-3-yl]ethyl}-2,8-diazaspiro[4.5]decan-1-one]: the concentration for half-maximal inhibition (IC50) (as a rule, the concentration at which inhibition is half-maximal) is 10 nM.

For the molecule `CC1=C(N2C=CC3(CCN([C@@H](C)Cc4ccc(-n5cnnn5)nn4)CC3)C2=O)COC1=O` (single isomer, unassigned) [Example 272], the 50% inhibitory concentration (IC50) was 10 nM.

With `CC1=C(N2C=CC3(CCN([C@H](C)Cc4ccc(-n5cnnn5)nn4)CC3)C2=O)COC1=O` (single isomer, unassigned) [Example 273], the IC50 was found to be 4 nM.

`CC1=C(N2C=CC3(CCN([C@@H](C)Cc4nnc(-n5cnnn5)cc4C)CC3)C2=O)COC1=O` (single isomer, unassigned) [Example 274] returned a half-maximal inhibitory concentration (IC50) of 10 nM.

Molecule `CC1=C(N2C=CC3(CCN([C@H](C)Cc4nnc(-n5cnnn5)cc4C)CC3)C2=O)COC1=O` (single isomer, unassigned) [Example 275] registered an IC50 of 4 nM.

In turn, `CO[C@H](CN1CCC2(CC1)C[C@@H](C)N(C1=CC(=O)OC1)C2=O)c1cnc(-n2cnnn2)cn1` (single isomer, unassigned) [Example 286] showed an IC50 of 60 nM.

`CC1=C(N2CCC3(CCN(C[C@H](C)c4ccc(-n5cnnn5)nn4)CC3)C2=O)COC1=O` (single isomer, unassigned) [Example 290] yielded an IC50 of 90 nM.

Molecule `CC1=C(N2CCC3(CCN(C[C@@H](C)c4ccc(-n5cnnn5)nn4)CC3)C2=O)COC1=O` (single isomer, unassigned) [Example 291] yielded a concentration for half-maximal inhibition (IC50) of 80 nM.

In turn, `CC1=C(N2CCC3(CCN([C@@H](C)Cc4ccc(-n5cnnn5)nn4)CC3)C2=O)COC1=O` (single isomer, unassigned) [Example 293] showed an IC50 of 10 nM.

In turn, `CC1=C(N2CCC3(CCN([C@H](C)Cc4ccc(-n5cnnn5)nn4)CC3)C2=O)COC1=O` (single isomer, unassigned) [Example 294] yielded a concentration for half-maximal inhibition (IC50) of 4 nM.

`CC1=C(N2CCC3(CCN(C(CO)Cc4ccc(-n5cnnn5)nc4)CC3)C2=O)COC1=O` (single isomer, unassigned) [Example 295]: half-maximal inhibition (IC50) required 20 nM.

`CC1=C(N2CCC3(CCN([C@H](CO)Cc4ccc(-n5cnnn5)nc4)CC3)C2=O)COC1=O` (single isomer, unassigned) [Example 296] registered an IC50 of 20 nM.

`CC1=C(N2CCC3(CCN(C(C)(C)C(O)c4ccc(-n5cnnn5)nc4)CC3)C2=O)COC1=O` (single isomer, unassigned) [Example 297] came in with a half-inhibitory concentration (IC50) of 10 nM.

As to `CC1=C(N2CCC3(CCN(C(C)(C)C(O)c4ccc(-n5cnnn5)nc4)CC3)C2=O)COC1=O` (single isomer, unassigned) [Example 298], the midpoint of inhibition, the IC50, lay at 10 nM.

For `CC1=C(N2CCC3(CCN(C(C)(C)C(O)c4ccc(-n5cnnn5)cn4)CC3)C2=O)COC1=O` (single isomer, unassigned) [Example 299], half-maximal inhibition (IC50) was put at 10 nM.

The molecule `CC1=C(N2CCC3(CCN(C(C)(C)C(O)c4ccc(-n5cnnn5)cn4)CC3)C2=O)COC1=O` (single isomer, unassigned) [Example 300] showed an IC50 of 20 nM.

`CC1CC2(CCN(C(C)(C)C(O)c3cnc(-n4cnnn4)cn3)CC2)C(=O)N1C1=CC(=O)OC1` (single isomer, unassigned) [Example 301, 8-(1-(5-(1H-tetrazol-1-yl)pyrazin-2-yl)-1-hydroxy-2-methylpropan-2-yl)-3-methyl-2-(5-oxo-2,5-dihydrofuran-3-yl)-2,8-diazaspiro[4.5]decan-1-one] registered a 50% inhibitory concentration (IC50) of 10 nM.

For `CC1CC2(CCN(C(C)(C)C(O)c3cnc(-n4cnnn4)cn3)CC2)C(=O)N1C1=CC(=O)OC1` (single isomer, unassigned) [Example 302, 8-(1-(5-(1H-tetrazol-1-yl)pyrazin-2-yl)-1-hydroxy-2-methylpropan-2-yl)-3-methyl-2-(5-oxo-2,5-dihydrofuran-3-yl)-2,8-diazaspiro[4.5]decan-1-one], the IC50 came out at 100 nM.

For `CC1CC2(CCN(C(C)(C)C(O)c3cnc(-n4cnnn4)cn3)CC2)C(=O)N1C1=CC(=O)OC1` (single isomer, unassigned) [Example 303, 8-(1-(5-(1H-tetrazol-1-yl)pyrazin-2-yl)-1-hydroxy-2-methylpropan-2-yl)-3-methyl-2-(5-oxo-2,5-dihydrofuran-3-yl)-2,8-diazaspiro[4.5]decan-1-one], half-maximal inhibition (IC50) required 2000 nM.

Molecule `CC1CC2(CCN(C(C)(C)C(O)c3cnc(-n4cnnn4)cn3)CC2)C(=O)N1C1=CC(=O)OC1` (single isomer, unassigned) [Example 304, 8-(1-(5-(1H-tetrazol-1-yl)pyrazin-2-yl)-1-hydroxy-2-methylpropan-2-yl)-3-methyl-2-(5-oxo-2,5-dihydrofuran-3-yl)-2,8-diazaspiro[4.5]decan-1-one] registered an IC50 of 910 nM.

Regarding `CC1=C(N2CCC3(CCN(C[C@H](O)c4cnc(-n5cnnn5)cc4C(F)F)CC3)C2=O)COC1=O` (stereo in doubt) [Example 147, 8-{2-[4-(difluoromethyl)-6-(1H-tetrazol-1-yl)pyridin-3-yl]-2-hydroxyethyl}-2-(4-methyl-5-oxo-2,5-dihydrofuran-3-yl)-2,8-diazaspiro[4.5]decan-1-one], the IC50 turned out to be 40 nM.

Regarding `O=C1C=C(N2CCC3(CCN(C[C@H](O)c4ccc(-n5cnnn5)nc4)CC3)C2=O)CO1` [Example 1, 8-{(2R)-2-Hydroxy-2-[6-(1H-tetrazol-1-yl)pyridin-3-yl]ethyl}-1-oxo-2-(5-oxo-2,5-dihydrofuran-3-yl)-2-aza-8-azoniaspiro[4.5]decane], the IC50 came to 10 nM.

`Cc1nc(-n2cnnn2)ccc1[C@@H](O)CN1CCC2(CC1)CCN(C1=CC(=O)OC1)C2=O` [Example 3, 8-{(2R)-2-hydroxy-2-[2-methyl-6-(1H-tetrazol-1-yl)pyridin-3-yl]ethyl}-1-oxo-2-(5-oxo-2,5-dihydrofuran-3-yl)-2-aza-8-azoniaspiro[4.5]decane] returned a half-maximal inhibitory concentration (IC50) of 20 nM.

`Cc1nc(-n2cnnn2)ccc1[C@H](O)CN1CCC2(CC1)CCN(C1=CC(=O)OC1)C2=O` [Example 4, 8-{(2S)-2-hydroxy-2-[2-methyl-6-(1H-tetrazol-1-yl)pyridin-3-yl]ethyl}-1-oxo-2-(5-oxo-2,5-dihydrofuran-3-yl)-2-aza-8-azoniaspiro[4.5]decane] had an IC50 of 50 nM.

Molecule `Cc1nc([C@@H](O)CN2CCC3(CC2)CCN(C2=CC(=O)OC2)C3=O)ccc1-n1cnnn1` [Example 5, 8-{(2S)-2-hydroxy-2-[6-methyl-5-(1H-tetrazol-1-yl)pyridin-2-yl]ethyl}-1-oxo-2-(5-oxo-2,5-dihydrofuran-3-yl)-2-aza-8-azoniaspiro[4.5]decane] had a half-inhibitory concentration (IC50) of 40 nM.

`Cc1cc([C@H](O)CN2CCC3(CC2)CCN(C2=CC(=O)OC2)C3=O)ncc1-n1cnnn1` [Example 6, 8-{(2R)-2-hydroxy-2-[4-methyl-5-(1H-tetrazol-1-yl)pyridin-2-yl]ethyl}-1-oxo-2-(5-oxo-2,5-dihydrofuran-3-yl)-2-aza-8-azoniaspiro[4.5]decane] displayed a 50% inhibitory concentration (IC50) of 50 nM.

For the molecule `Cc1cc([C@@H](O)CN2CCC3(CC2)CCN(C2=CC(=O)OC2)C3=O)ncc1-n1cnnn1` [Example 7, 8-{(2S)-2-hydroxy-2-[4-methyl-5-(1H-tetrazol-1-yl)pyridin-2-yl]ethyl}-1-oxo-2-(5-oxo-2,5-dihydrofuran-3-yl)-2-aza-8-azoniaspiro[4.5]decane], 80 nM corresponded to half-maximal inhibition (IC50).

In turn, `Cc1nc([C@H](O)CN2CCC3(CC2)CCN(C2=CC(=O)OC2)C3=O)ccc1-n1cnnn1` [Example 8, 8-{(2R)-2-hydroxy-2-[6-methyl-5-(1H-tetrazol-1-yl)pyridin-2-yl]ethyl}-1-oxo-2-(5-oxo-2,5-dihydrofuran-3-yl)-2-aza-8-azoniaspiro[4.5]decane] showed an IC50 of 60 nM.

In turn, `O=C1C=C(N2CCC3(CCN(C[C@H](O)c4cnc(-n5cnnn5)nc4)CC3)C2=O)CO1` [Example 9, 8-{(2R)-2-hydroxy-2-[2-(1H-tetrazol-1-yl)pyrimidin-5-yl]ethyl}-1-oxo-2-(5-oxo-2,5-dihydrofuran-3-yl)-2-aza-8-azoniaspiro[4.5]decane] had a half-maximal inhibitory concentration (IC50) of 80 nM.

As for `Cc1cc(-n2cnnn2)ccc1[C@@H](O)CN1CCC2(CC1)CCN(C1=CC(=O)OC1)C2=O` [Example 11, 8-{(2R)-2-hydroxy-2-[2-methyl-4-(1H-tetrazol-1-yl)phenyl]ethyl}-1-oxo-2-(5-oxo-2,5-dihydrofuran-3-yl)-2-aza-8-azoniaspiro[4.5]decane], inhibition was half-maximal at 20 nM (IC50).

`Cc1cc(-n2cnnn2)ccc1[C@H](O)CN1CCC2(CC1)CCN(C1=CC(=O)OC1)C2=O` [Example 12, 8-{(2S)-2-hydroxy-2-[2-methyl-4-(1H-tetrazol-1-yl)phenyl]ethyl}-1-oxo-2-(5-oxo-2,5-dihydrofuran-3-yl)-2-aza-8-azoniaspiro[4.5]decane] displayed a 50% inhibitory concentration (IC50) of 10 nM.

In the case of `O=C1C=C(N2CCC3(CCN(C[C@H](O)c4ccc(-n5cnnn5)cc4F)CC3)C2=O)CO1` [Example 13, 8-{(2R)-2-[2-fluoro-4-(1H-tetrazol-1-yl)phenyl]-2-hydroxyethyl}-1-oxo-2-(5-oxo-2,5-dihydrofuran-3-yl)-2-aza-8-azoniaspiro[4.5]decane], the midpoint of inhibition, the IC50, lay at 20 nM.
